# Data taken from ChEMBL document CHEMBL4196089, “Design, synthesis, biological evaluation and in vivo testing of dual phosphodiesterase 5 (PDE5) and histone deacetylase 6 (HDAC6)-selective inhibitors for the treatment of Alzheimer's disease” (Eur J Med Chem, 2018).
# Tests used:
# [1] = molecular target: Histone deacetylase 1 (Homo sapiens, UniProt Q13547); assay: Inhibition of full length human recombinant C-terminal FLAG/His-tagged HDAC1 expressed in baculovirus infected sf9 cells using fluorogenic HDAC substrate 3 after 30 mins by fluorescence assay
# [2] = molecular target: Histone deacetylase 2 (Homo sapiens, UniProt Q92769); assay: Inhibition of full length human recombinant C-terminal His-tagged HDAC2 expressed in baculovirus infected sf9 cells using fluorogenic HDAC substrate 3 after 30 mins by fluorescence assay
# [3] = molecular target: T1, Protein deacetylase HDAC6 (Homo sapiens, UniProt Q9UBN7); assay: Inhibition of full length human recombinant N-terminal GST-tagged HDAC6 expressed in baculovirus infected sf9 cells using fluorogenic HDAC substrate 3 after 30 mins by fluorescence assay
# T1 sequence (Q9UBN7 whole entry): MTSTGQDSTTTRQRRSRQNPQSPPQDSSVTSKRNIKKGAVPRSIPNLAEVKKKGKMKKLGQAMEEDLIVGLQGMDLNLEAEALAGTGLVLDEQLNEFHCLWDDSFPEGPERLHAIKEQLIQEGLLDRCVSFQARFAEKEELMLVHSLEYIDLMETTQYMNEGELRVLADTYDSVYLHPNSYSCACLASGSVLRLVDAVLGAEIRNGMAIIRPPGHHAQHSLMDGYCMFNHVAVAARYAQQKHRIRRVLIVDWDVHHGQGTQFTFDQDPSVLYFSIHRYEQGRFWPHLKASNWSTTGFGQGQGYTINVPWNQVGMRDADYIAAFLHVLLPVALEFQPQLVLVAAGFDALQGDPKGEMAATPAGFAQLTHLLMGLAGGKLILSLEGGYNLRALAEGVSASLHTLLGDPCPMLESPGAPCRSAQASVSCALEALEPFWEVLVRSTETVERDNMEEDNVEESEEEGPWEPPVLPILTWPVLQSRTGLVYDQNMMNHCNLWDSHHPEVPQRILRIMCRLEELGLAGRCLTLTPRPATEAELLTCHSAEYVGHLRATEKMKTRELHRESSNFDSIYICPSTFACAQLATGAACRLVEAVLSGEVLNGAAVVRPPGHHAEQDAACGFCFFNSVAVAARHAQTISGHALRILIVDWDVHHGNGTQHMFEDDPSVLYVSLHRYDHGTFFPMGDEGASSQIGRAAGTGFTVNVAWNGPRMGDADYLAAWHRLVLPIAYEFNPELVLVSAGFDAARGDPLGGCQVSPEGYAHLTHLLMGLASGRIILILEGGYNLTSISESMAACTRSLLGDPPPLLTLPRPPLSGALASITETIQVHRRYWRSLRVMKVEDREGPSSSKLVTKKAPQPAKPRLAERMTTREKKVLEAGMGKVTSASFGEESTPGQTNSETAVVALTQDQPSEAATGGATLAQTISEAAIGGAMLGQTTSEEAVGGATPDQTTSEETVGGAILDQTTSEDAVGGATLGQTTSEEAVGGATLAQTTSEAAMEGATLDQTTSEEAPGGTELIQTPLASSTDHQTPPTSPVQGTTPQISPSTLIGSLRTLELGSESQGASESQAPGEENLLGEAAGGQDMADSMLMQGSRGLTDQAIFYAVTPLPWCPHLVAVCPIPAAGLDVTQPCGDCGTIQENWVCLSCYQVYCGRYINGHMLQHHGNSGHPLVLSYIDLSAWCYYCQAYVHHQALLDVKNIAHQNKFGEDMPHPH
# [4] = molecular target: cGMP-specific 3',5'-cyclic phosphodiesterase (Homo sapiens, UniProt O76074); assay: Inhibition of full length human recombinant N-terminal GST-tagged PDE5A1 expressed in baculovirus infected sf9 cells using cGMP as substrate after 30 mins by fluorescence assay
# [5] = Cytotoxicity against human THLE2 cells after 72 hrs by vialight cell proliferation assay; assay type: cell-based, THLE-2; conditions: read-out: LC50
# [6] = Effective permeability of the compound at 10 uM after 18 hrs by LC-MS/MS based PAMPA; assay type: ADME; conditions: read-out: Peff
# [7] = cells; conditions: Homo sapiens, SH-SY5Y, 2 h, read-out: FC
# [8] = cells; conditions: Homo sapiens, SH-SY5Y, 2 h, read-out: FC; remark: listed apart in the source
# [9] = cells; conditions: Homo sapiens, SH-SY5Y, 2 h, read-out: FC; remark: listed apart in the source
# Chain of Histone deacetylase 2 (Q92769 whole entry): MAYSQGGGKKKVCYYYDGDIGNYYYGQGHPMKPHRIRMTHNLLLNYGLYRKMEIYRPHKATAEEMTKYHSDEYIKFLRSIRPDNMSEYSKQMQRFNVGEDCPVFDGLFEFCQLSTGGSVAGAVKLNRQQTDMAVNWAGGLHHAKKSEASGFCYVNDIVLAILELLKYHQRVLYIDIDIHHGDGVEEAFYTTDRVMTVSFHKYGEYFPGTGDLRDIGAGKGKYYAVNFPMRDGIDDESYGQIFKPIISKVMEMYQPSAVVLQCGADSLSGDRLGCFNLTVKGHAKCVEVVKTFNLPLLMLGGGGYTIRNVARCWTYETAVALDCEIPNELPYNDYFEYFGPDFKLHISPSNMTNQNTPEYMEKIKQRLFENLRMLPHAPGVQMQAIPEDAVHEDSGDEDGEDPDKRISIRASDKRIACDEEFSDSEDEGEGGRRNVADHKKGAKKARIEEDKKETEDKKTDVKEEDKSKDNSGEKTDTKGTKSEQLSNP
# Chain of Histone deacetylase 1 (Q13547 whole entry): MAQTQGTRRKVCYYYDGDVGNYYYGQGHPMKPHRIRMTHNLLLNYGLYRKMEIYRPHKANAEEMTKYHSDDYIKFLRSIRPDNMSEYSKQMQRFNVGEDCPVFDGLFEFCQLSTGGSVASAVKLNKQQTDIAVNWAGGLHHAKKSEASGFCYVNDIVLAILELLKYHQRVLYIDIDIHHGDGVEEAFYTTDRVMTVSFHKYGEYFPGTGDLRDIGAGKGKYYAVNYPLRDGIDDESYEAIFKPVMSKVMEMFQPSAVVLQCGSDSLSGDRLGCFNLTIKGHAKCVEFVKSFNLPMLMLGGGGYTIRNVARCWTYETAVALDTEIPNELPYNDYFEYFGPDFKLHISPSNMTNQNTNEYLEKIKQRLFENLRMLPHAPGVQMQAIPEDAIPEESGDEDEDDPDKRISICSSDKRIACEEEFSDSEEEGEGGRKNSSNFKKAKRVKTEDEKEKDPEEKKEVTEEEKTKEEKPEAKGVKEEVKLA
smiles,measurement,setting,value
CCCc1nc(C)c2c(=O)[nH]c(-c3cc(-c4ccc(C(=O)NO)cc4)ccc3OCC)nn12,IC50,[1],4.1 µM
same,IC50,[2],> 20 µM
same,IC50,[3],0.326 µM
same,IC50,[4],0.002 µM
same,CC50 at 72 h,[5],> 100 µM
same,"Papp at 18 h, 10 µM",[6],27 nm/s
same,fold induction at 0.1 µM,[7],1.3
same,fold induction at 0.5 µM,[8],2.3
same,fold induction at 1 µM,[9],2.8
